The text below walks through data of US8039514B2, “Sulfonamide compounds and use thereof” (Asahi Kasei Pharma Corporation, priority 2008, dated 2011).

A value given as a limit tells only on which side of the number the result lay.

The experiment concerns the target T1, human calcium-sensing receptor (CaSR) (Homo sapiens, UniProt P41180).
T1 construct: expressed in transfected cells
T1 sequence (P41180 20-1078): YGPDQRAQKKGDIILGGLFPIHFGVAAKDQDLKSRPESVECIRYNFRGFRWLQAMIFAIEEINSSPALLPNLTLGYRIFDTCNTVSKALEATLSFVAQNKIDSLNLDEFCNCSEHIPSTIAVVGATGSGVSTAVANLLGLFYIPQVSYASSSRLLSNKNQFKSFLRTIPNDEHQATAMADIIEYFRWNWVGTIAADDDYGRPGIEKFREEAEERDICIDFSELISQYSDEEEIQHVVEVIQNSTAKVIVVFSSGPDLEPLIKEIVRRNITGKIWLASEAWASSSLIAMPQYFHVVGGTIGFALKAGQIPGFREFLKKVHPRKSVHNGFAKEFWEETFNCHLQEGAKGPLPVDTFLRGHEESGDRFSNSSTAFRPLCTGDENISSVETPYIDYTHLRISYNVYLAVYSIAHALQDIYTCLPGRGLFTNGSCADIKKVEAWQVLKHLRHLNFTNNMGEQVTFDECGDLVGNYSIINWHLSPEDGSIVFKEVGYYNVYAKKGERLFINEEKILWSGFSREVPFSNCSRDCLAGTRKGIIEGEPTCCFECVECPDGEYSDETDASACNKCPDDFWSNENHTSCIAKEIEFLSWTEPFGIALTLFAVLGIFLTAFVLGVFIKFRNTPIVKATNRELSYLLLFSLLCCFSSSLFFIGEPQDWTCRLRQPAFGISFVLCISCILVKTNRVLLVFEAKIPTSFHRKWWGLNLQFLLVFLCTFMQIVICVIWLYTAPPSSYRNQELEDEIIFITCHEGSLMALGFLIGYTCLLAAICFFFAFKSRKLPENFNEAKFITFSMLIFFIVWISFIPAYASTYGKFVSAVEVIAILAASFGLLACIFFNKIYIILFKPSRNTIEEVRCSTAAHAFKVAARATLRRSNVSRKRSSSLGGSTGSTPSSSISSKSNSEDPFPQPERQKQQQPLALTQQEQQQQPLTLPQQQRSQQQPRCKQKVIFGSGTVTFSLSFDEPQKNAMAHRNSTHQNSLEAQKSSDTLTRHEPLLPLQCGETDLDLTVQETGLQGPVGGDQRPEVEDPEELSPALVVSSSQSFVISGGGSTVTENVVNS
The experiment can be described thus: intracellular Ca assay, CaSR antagonist activity in HEK293/hCaSR cells. The following applies: Fura2-AM, inhibition of response to calcium chloride ligand solution, read-out: IC50 values according to the intracellular Ca assay (CaSR antagonist activity). In kind it is cell-based. On the procedure:
HEK293 cells stably expressing human calcium-sensing receptor (CaSR) (termed HEK293/hCaSR cells) were used. HEK293/hCaSR cells were cultured in a culture medium [DMEM medium containing 0.5 mg/mL Geneticin, 50 Unit/mL penicillin, 50 μg/mL streptomycin and 10% fetal bovine serum (FBS), all manufactured by Invitrogen] to semiconfluent in an incubator at 37° C. under 5% carbon dioxide atmosphere.
Cultured cells were washed with phosphate buffered saline (PBS(−), manufactured by Dainippon Sumitomo Pharmaceutical Company) which had been prewarmed to 37° C., added with PBS(−) containing 10 mM ethylenediamine tetraacetic acid (EDTA), and then incubated in an incubator at 37° C. for 10 minutes. After adding the culture medium to separate the cells, cell suspension was transferred to a centrifuge tube. Cells were collected by centrifuge at 1,500 rpm for 3 minutes, and resuspended in Ca assay buffer [20 mM HEPES buffer (pH 7.4), 115 mM sodium chloride, 5.4 mM potassium chloride, 0.8 mM magnesium chloride, 0.8 mM calcium chloride, 13.8 mM D(+)-glucose (all manufactured by Wako Pure Chemicals) and 0.1% bovine serum albumin (manufactured by SIGMA)] containing 0.2% Pluronic F-127 (manufactured by Molecular Probes) and […] Fura2-AM (manufactured by DOJINDO LABORATORIES) to obtain a cell suspension of 5×10^6 cells/mL. After incubating at 37° C. for 30 minutes, the cells were washed twice with the Ca assay buffer and suspended in the same buffer to obtain a cell suspension of 1×10^6 cells/60 μL. 60 μL of the cell suspension was aliquoted to each well of a 96 well UV microplate (manufactured by Corning Co.) to give a cell plate.
The test compound was diluted with the Ca assay buffer to five times the final concentration and then 80 μL of the diluted compound was applied to each well of a 96 well round bottomed microplate (manufactured by Corning Co.) to give a sample plate. 80 μL of the Ca assay buffer containing 7.5 mM calcium chloride (i.e., ligand solution) was applied to each well of a 96 well round bottomed microplate to give a ligand plate. Then, thus prepared sample plate, ligand plate, and the cell plate were placed in Functional Drug Screening System (FDSS) 4000 (manufactured by Hamamatsu Photonics K.K.) which had been preswitched on and prewarmed to 37° C. Measurements were then carried out as follows. After incubating the cell plate for 180 seconds, fluorescence intensity was measured every two seconds (excitation wavelength; 340 nm and 380 nm, measurement wavelength; 500 nm). After the measurement for 40 seconds, 20 μL of the test compound solution from the sample plate was added to the cell plate, followed by continuous measurement for 160 seconds. Then, 20 μL of the ligand solution from the ligand plate was added to the cell plate, followed by continuous measurement for 100 seconds.
Amount of change in intracellular Ca concentration is indicated as a peak height of the ratio of the fluorescence intensity with excitation of 340 nm and 380 nm (i.e., fluorescence intensity with excitation at 340 nm/fluorescence intensity with excitation at 380 nm) that is obtained from the difference between the maximum ratio after adding the ligand solution and the ratio before adding the ligand solution. Further, when the peak height obtained from the Ca assay buffer containing no test compound has inhibition ratio of 0% while the peak height obtained from the Ca assay buffer containing no calcium chloride as a ligand solution has inhibition ratio of 100%, inhibition ratio for each test compound (i.e., CaSR antagonist activity) was calculated.
As to `CCc1cc(-c2ccc(CCC(=O)O)c(F)c2)ccc1S(=O)(=O)N(C)C[C@H](O)CNC(C)(C)CC1Cc2ccccc2C1` [Exp. 5-58, (R)-3-(4′-(N-(3-(1-(2,3-dihydro-1H-inden-2-yl)-2-methylpropan-2-ylamino)-2-hydroxypropyl)-N-methylsulfamoyl)-3′-ethyl-3-fluorobiphenyl-4-yl)propionic acid], the IC50 was not above 300 nM. For `CN(C[C@H](O)CNC(C)(C)Cc1ccc2ccccc2c1)S(=O)(=O)c1cccc(-c2cc(N)cc(C(=O)O)c2)c1` [Exp. 3-17, (R)-5-amino-3′-(N-(2-hydroxy-3-(2-methyl-1-(naphthalen-2-yl)propan-2-ylamino)propyl)-N-methylsulfamoyl)biphenyl-3-carboxylic acid], the half-maximal inhibitory concentration (IC50) is 300 to 1000 nM. With `Cc1ccc(CC(C)(C)NC[C@@H](O)CN(C)S(=O)(=O)c2cccc(-c3cc(F)cc(C(=O)O)c3)c2)cc1F` [Exp. 3-71, (R)-5-fluoro-3′-(N-(3-(1-(3-fluoro-4-methylphenyl)-2-methylpropan-2-ylamino)-2-hydroxypropyl)-N-methylsulfamoyl)biphenyl-3-carboxylic acid], the IC50 was 1000 to 3000 nM.

For `Cc1cc(-c2cccc(S(=O)(=O)N(C)C[C@H](O)CNC(C)(C)CC3Cc4ccccc4C3)c2)ccc1C(=O)O` [Exp. 3-52, (R)-3′-(N-(3-(1-(2,3-dihydro-1H-inden-2-yl)-2-methylpropan-2-ylamino)-2-hydroxypropyl)-N-methylsulfamoyl)-3-methylbiphenyl-4-carboxylic acid], the IC50 was 300 to 1000 nM. Consider `CN(C[C@H](O)CNC(C)(C)Cc1ccc2ccccc2c1)S(=O)(=O)c1ccc(-c2cc(F)c(C(=O)O)c(F)c2)cc1` [Exp. 3-48, (R)-3,5-difluoro-4′-(N-(2-hydroxy-3-(2-methyl-1-(naphthalen-2-yl)propan-2-ylamino)propyl)-N-methylsulfamoyl)biphenyl-4-carboxylic acid], for which the IC50 was not above 300 nM. As to `Cc1ccc(-c2cccc(S(=O)(=O)N(C)C[C@H](O)CNC(C)(C)CC3Cc4ccccc4C3)c2)cc1C(=O)O` [Exp. 3-51, (R)-3′-(N-(3-(1-(2,3-dihydro-1H-inden-2-yl)-2-methylpropan-2-ylamino)-2-hydroxypropyl)-N-methylsulfamoyl)-4-methylbiphenyl-3-carboxylic acid], the IC50 was in the range of 300 to 1000 nM. With `CN(C[C@H](O)CNC(C)(C)Cc1ccc2ccccc2c1)S(=O)(=O)c1ccc(-c2ccc(NC(=O)CCC(=O)O)cc2)cc1` [Exp. 3-43, (R)-4-(4′-(N-(2-hydroxy-3-(2-methyl-1-(naphthalen-2-yl)propan-2-ylamino)propyl)-N-methylsulfamoyl)biphenyl-4-ylamino)-4-oxobutanoic acid], the half-maximal inhibitory concentration (IC50) lay within 1000 to 3000 nM. The figure for `CN(C[C@H](O)CNC(C)(C)CC1Cc2ccccc2C1)S(=O)(=O)c1cc(-c2ccc(CC(=O)O)cc2)cc(C(F)(F)F)c1` [Exp. 3-133, (R)-2-(3′-(N-(3-(1-(2,3-dihydro-1H-inden-2-yl)-2-methylpropan-2-ylamino)-2-hydroxypropyl)-N-methylsulfamoyl)-5′-(trifluoromethyl)biphenyl-4-yl)acetic acid] is not above 300 nM; for `CN(C[C@H](O)CNC(C)(C)Cc1ccc(Cl)c(F)c1)S(=O)(=O)c1cccc(-c2ccc(C(=O)O)cc2F)c1` [Exp. 3-76, (R)-3′-(N-(3-(1-(4-chloro-3-fluorophenyl)-2-methylpropan-2-ylamino)-2-hydroxypropyl)-N-methylsulfamoyl)-2-fluorobiphenyl-4-carboxylic acid] it is 1000 to 3000 nM. As to `CN(C[C@H](O)CNC(C)(C)Cc1ccc2ccccc2c1)S(=O)(=O)c1cccc(-c2cc(F)c(C(=O)O)c(F)c2)c1` [Exp. 3-25, (R)-3,5-difluoro-3′-(N-(2-hydroxy-3-(2-methyl-1-(naphthalen-2-yl)propan-2-ylamino)propyl)-N-methylsulfamoyl)biphenyl-4-carboxylic acid], the IC50 lay within 300 to 1000 nM.

Consider `CN(C[C@H](O)CNC(C)(C)Cc1ccc2ccccc2c1)S(=O)(=O)c1ccc(-c2ccccc2C=CC(=O)O)cc1` [Exp. 3-44, (R)-3-(4′-(N-(2-hydroxy-3-(2-methyl-1-(naphthalen-2-yl)propan-2-ylamino)propyl)-N-methylsulfamoyl)biphenyl-2-yl)acrylic acid], for which the IC50 was in the range of 1000 to 3000 nM. As for `CN(C[C@H](O)CNC(C)(C)Cc1ccc2ccccc2c1)S(=O)(=O)c1ccc(-c2ccc(C(=O)O)c(O)c2)cc1` [Exp. 3-46, (R)-3-hydroxy-4′-(N-(2-hydroxy-3-(2-methyl-1-(naphthalen-2-yl)propan-2-ylamino)propyl)-N-methylsulfamoyl)biphenyl-4-carboxylic acid], the IC50 lay in the range of 300 to 1000 nM. In the case of `CN(C[C@H](O)CNC(C)(C)CCCc1ccccc1)S(=O)(=O)c1cc(NCC(=O)O)cc(C(F)(F)F)c1` [Exp. 9-180, (R)-2-(3-(N-(2-hydroxy-3-(2-methyl-5-phenylpentan-2-ylamino)propyl)-N-methylsulfamoyl)-5-(trifluoromethyl)phenylamino)acetic acid], the IC50 was not above 300 nM. In the case of `CN(C[C@H](O)CNC(C)(C)Cc1ccc2ccccc2c1)S(=O)(=O)c1cccc(-c2ccc(C(=O)NCCC(=O)O)cc2)c1` [Exp. 3-27, (R)-3-(3′-(N-(2-hydroxy-3-(2-methyl-1-(naphthalen-2-yl)propan-2-ylamino)propyl)-N-methylsulfamoyl)biphenyl-4-ylcarboxamide)propionic acid], the half-maximal inhibitory concentration (IC50) lay within 300 to 1000 nM.

For the compound `CN(C[C@H](O)CNC(C)(C)Cc1ccc2ccccc2c1)S(=O)(=O)c1cccc(-c2ccc(NC(=O)CCC(=O)O)cc2)c1` [Exp. 3-21, (R)-4-(3′-(N-(2-hydroxy-3-(2-methyl-1-(naphthalen-2-yl)propan-2-ylamino)propyl)-N-methylsulfamoyl)biphenyl-4-ylamino)-4-oxobutanoic acid], the IC50 was 300 to 1000 nM. Turning to `CN(C[C@H](O)CNC(C)(C)Cc1ccc2ccccc2c1)S(=O)(=O)c1cccc(-c2ccc(C(=O)O)cc2F)c1` [Exp. 3-12, (R)-2-fluoro-3′-(N-(2-hydroxy-3-(2-methyl-1-(naphthalen-2-yl)propan-2-ylamino)propyl)-N-methylsulfamoyl)biphenyl-4-carboxylic acid], the IC50 lay within 300 to 1000 nM.
